EC50 and CC50 data for 19 compounds are collected here from patent US10377709B2, “Carboxamide derivatives and the use thereof as medicaments for the treatment of hepatitis B” (Janssen Sciences Ireland UC, priority 2013, dated 2019).

The subject of data set [1] is HBV. The experiment in a line: Anti-HBV activity in HepG2.2.15 stable transfected cell line (HBV DNA from secreted virions, realtime PCR). It is filed as cell-based, Hepatitis B virus. The note with it: HepG2.2.15 cells, 6 days of treatment, HBV DNA from secreted virions by realtime PCR.
Data set [2] is described as follows: Cytotoxicity in HepG2 cells (Resazurin assay). Format: cell-based. The note with it: human, incubated 4 days, viability by Resazurin assay.
In data set [3] the test system is HBV. The experiment in a line: Anti-HBV activity in HepG2.117 inducible HBV producing cell line (intracellular HBV DNA, realtime PCR). Format: cell-based, Hepatitis B virus. The note with it: HepG2.117 cells (Tet-off), 3 days of treatment, intracellular HBV DNA by realtime PCR.
Where [4] appears, read: Hepatitis B virus, HepG2.2.15, 144 h.
The mark [5] stands for this setting: Hepatitis B virus, HepG2.117, 72 h.

pEC50: −log10 of the molar value.

With `Cc1cc(NC(=O)[C@H]2CCN(C(=O)C(=O)NC3CCCC3)C2)ccc1F` [Compound 5], the figures for the pEC50 in the data set with HBV [1] (setting [4]) and in the data set on HBV [3] (setting [5]) were 6.95 and 7.34, respectively. In data set [2], the CC50 (commonly the concentration that lowers cell viability or growth by half) at 4 days was over 25 µM.

For `CC1C(C(=O)Nc2ccc(F)c(Cl)c2F)CCCN1C(=O)C(=O)N[C@H](C)C(F)(F)F` (single isomer, unassigned) [Compound 35a], the pEC50 in the data set with HBV [1] and in the data set with HBV [3] was under 6.00 in each case. Further, the CC50 at 4 days in data set [2] is over 25 µM.

In the case of `CC(C)NC(=O)C(=O)N1CCC(C(=O)Nc2ccc(F)c(C#N)c2)[C@@H]1C` (stereo partly drawn) [Compound 27, (2S)-N-(3-cyano-4-fluoro-phenyl)-1-[2-(isopropylamino)-2-oxo-acetyl]-2-methyl-pyrrolidine-3-carboxamide], the results for the pEC50 in the data set with HBV [1] (setting [4]) and with HBV [3] (setting [5]) were 6.92 and 6.90, respectively. The compound also displayed a CC50 at 4 days in data set [2] of over 25 µM.

As to `CC[C@@H](C)NC(=O)C(=O)N1CC[C@H](C(=O)Nc2ccc(F)c(C)c2)C1` [Compound 8, (3S)-N-(4-Fluoro-3-methylphenyl)-1-[{[(1R)-1-methylpropyl]amino}(oxo)acetyl]pyrrolidine-3-carboxamide], the pEC50 (as a rule, −log10 of the EC50, conventionally taken in molar units) is 7.19 with HBV [1] (setting [4]) and 7.42 with HBV [3] (setting [5]). The compound also gave a CC50 at 4 days in data set [2] of over 25 µM.

Regarding `CC(C)NC(=O)C(=O)N1CCC(C(=O)Nc2cc(F)c(F)c(Cl)c2)[C@@H]1C` (stereo partly drawn) [Compound 29, (2S)-N-(3-chloro-4,5-difluoro-phenyl)-1-[2-(isopropylamino)-2-oxo-acetyl]-2-methyl-pyrrolidine-3-carboxamide], the pEC50 with HBV [1] (setting [4]) is 7.74; in the data set with HBV [3] (setting [5]), 7.32. In data set [2], this compound returned a CC50 at 4 days of over 25 µM.

On to `Cc1cc(NC(=O)[C@H]2CCN(C(=O)C(=O)NC(C)C)C2)ccc1F` [Compound 4, (3S)-N-(4-Fluoro-3-methylphenyl)-1-{[(1-methylethyl)amino] (oxo)acetyl}-pyrrolidine-3-carboxamide], for which the negative-log EC50 (pEC50) in the data set with HBV [1] (setting [4]) was 6.90; in the data set on HBV [3] (setting [5]), 7.15. The CC50 at 4 days in data set [2] is over 25 µM.

As to `CC(C)NC(=O)C(=O)N1CC[C@H](C(=O)Nc2ccc(F)c(C(F)F)c2)C1` [Compound 31, (3S)-N-[3-(difluoromethyl)-4-fluoro-phenyl]-1-[2-(isopropylamino)-2-oxo-acetyl]pyrrolidine-3-carboxamide], the pEC50 with HBV [1] (setting [4]) is 6.87; in the data set on HBV [3] (setting [5]) it was 6.84. In addition, the CC50 at 4 days in data set [2] was over 25 µM.

For the compound `Cc1cc(NC(=O)[C@H]2CCCN(C(=O)C(=O)NC(C)C)C2)ccc1F` [Compound 12, (3S)-N-(4-Fluoro-3-methylphenyl)-1-{[(1-methylethyl)amino] (oxo)-acetyl}piperidine-3-carboxamide], the pEC50 was 6.49 in the data set with HBV [1] (setting [4]) and 6.94 in the data set on HBV [3] (setting [5]). Also, the CC50 at 4 days in data set [2] is over 25 µM.

Consider `CC(C)NC(=O)C(=O)N1CCC(C(=O)Nc2cc(F)c(F)c(Cl)c2)[C@@H]1C` (single isomer, unassigned) [Compound 29a], for which the pEC50 with HBV [1] is 8.00; in the data set on HBV [3] it was 7.96. The compound also displayed a CC50 at 4 days in data set [2] of over 25 µM.

For `CC[C@@H](C)NC(=O)C(=O)N1CC[C@H](C(=O)Nc2ccc(F)c(C(F)(F)F)c2)C1` [Compound 24, (3S)-N-[4-fluoro-3-(trifluoromethyl)phenyl]-1-[2-[[(1R)-1-methylpropyl]-amino]-2-oxo-acetyl]pyrrolidine-3-carboxamide], the pEC50 in the data set with HBV [1] (setting [4]) is 6.87; with HBV [3] (setting [5]), 6.42. In data set [2], the CC50 at 4 days is over 25 µM.

Regarding `Cc1cc(NC(=O)[C@H]2CCN(C(=O)C(=O)NC3(C)COC3)[C@H]2C)ccc1F` [Compound 10, (2S,3S)-N-(4-Fluoro-3-methylphenyl)-2-methyl-1-{[(3-methyloxetan-3-yl)-amino](oxo)acetyl}pyrrolidine-3-carboxamide], the results for the pEC50 with HBV [1] (setting [4]) and in the data set on HBV [3] (setting [5]) were 8.10 and 8.05, respectively. For the same compound, the CC50 at 4 days in data set [2] is over 25 µM.

On to `C[C@@H](NC(=O)C(=O)N1CC[C@H](C(=O)Nc2ccc(F)c(C(F)(F)F)c2)C1)C(F)(F)F` [Compound 14, (S)-N-(4-fluoro-3-(trifluoromethyl)phenyl)-1-(2-oxo-2-(((R)-1,1,1-trifluoropropan-2-yl)amino)acetyl)pyrrolidine-3-carboxamide], for which the pEC50 is 7.19 in the data set on HBV [1] (setting [4]) and 7.35 in the data set with HBV [3] (setting [5]). The CC50 at 4 days in data set [2] is over 25 µM.

Take `C[C@@H](NC(=O)C(=O)N1CC[C@H](C(=O)Nc2ccc(F)c(C#N)c2)C1)C(F)(F)F` [Compound 22, (3S)-N-(3-cyano-4-fluoro-phenyl)-1-[2-oxo-2-[[(1R)-2,2,2-trifluoro-1-methyl-ethyl]amino]acetyl]pyrrolidine-3-carboxamide]: the pEC50 is 6.96 in the data set with HBV [1] (setting [4]) and 6.89 in the data set with HBV [3] (setting [5]). For the same compound, the CC50 at 4 days in data set [2] was over 25 µM.

As to `CC1(NC(=O)C(=O)N2CC[C@H](C(=O)Nc3cc(F)c(F)c(Br)c3)C2)COC1` [Compound 2, (S)-N-(3-bromo-4,5-difluorophenyl)-1-(2-((3-methyloxetan-3-yl)amino)-2-oxoacetyl)pyrrolidine-3-carboxamide], the pEC50 in the data set with HBV [1] (setting [4]) is 7.15; with HBV [3] (setting [5]) it was 7.48. In data set [2], this compound returned a CC50 at 4 days of over 25 µM.

Take `C[C@H](NC(=O)C(=O)N1CC[C@H](C(=O)Nc2ccc(F)c(Cl)c2)C1)C(F)(F)F` [Compound 26, (3S)-N-(3-chloro-4-fluoro-phenyl)-1-[2-oxo-2-[[(1S)-2,2,2-trifluoro-1-methyl-ethyl]amino]acetyl]pyrrolidine-3-carboxamide]: the pEC50 with HBV [1] (setting [4]) was 6.77; in the data set on HBV [3] (setting [5]), 6.91. For the same compound, in data set [2], the CC50 at 4 days is over 25 µM.

Take `Cc1cc(NC(=O)[C@H]2CCN(C(=O)C(=O)N[C@H](C)CO)C2)ccc1F` [Compound 6, (S)-N-(4-fluoro-3-methylphenyl)-1-(2-(((R)-1-hydroxypropan-2-yl)amino)-2-oxoacetyl)pyrrolidine-3-carboxamide]: the pEC50 was 6.52 in the data set with HBV [1] (setting [4]) and 6.59 in the data set with HBV [3] (setting [5]). In addition, the CC50 at 4 days in data set [2] is over 25 µM.

In the case of `Cc1cc(NC(=O)C2CC(C)N(C(=O)C(=O)NC3(C)COC3)C2)ccc1F` (single isomer, unassigned) [Compound 17a, N-(4-fluoro-3-methylphenyl)-5-methyl-1-(2-((3-methyloxetan-3-yl)amino)-2-oxoacetyl)pyrrolidine-3-carboxamide], the pEC50 in the data set with HBV [1] and in the data set with HBV [3] was under 6.00 in each case. In data set [2], this compound gave a CC50 at 4 days of over 25 µM.

`CC(C)NC(=O)C(=O)N1CCC(C(=O)Nc2ccc(F)c(Cl)c2F)[C@@H]1C` (stereo partly drawn) [Compound 28, (2S)-N-(3-chloro-2,4-difluoro-phenyl)-1-[2-(isopropylamino)-2-oxo-acetyl]-2-methyl-pyrrolidine-3-carboxamide]: the pEC50 in the data set with HBV [1] (setting [4]) was 7.30; in the data set on HBV [3] (setting [5]) it was 7.08. Also, the CC50 at 4 days in data set [2] is over 25 µM.

`CC(C)(C)NC(=O)C(=O)N1CC[C@H](C(=O)Nc2ccc(F)c(Cl)c2F)C1` [Compound 19, (3S)-1-[2-(tert-butylamino)-2-oxo-acetyl]-N-(3-chloro-2,4-difluoro-phenyl)pyrrolidine-3-carboxamide]: the pEC50 is 6.30 in the data set on HBV [1] (setting [4]) and 6.35 in the data set with HBV [3] (setting [5]). The CC50 at 4 days in data set [2] was over 25 µM.
